Assay results reported in patent US6737383B1, “Herbicidal oxadiazolidines” (priority 1999, dated 2004).

Tests used:
sugar beet = assay: Test B pre/postemergence sugar beet; format: in vivo, Beta vulgaris
Method in brief: (§1)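 Herbicidal effect was estimated by eye on a ten-point control scale after plants spent twelve to sixteen days in a greenhouse following soil or foliar treatment. Foliar sprays targeted plants at one to four leaves; all doses were formulated in a non-phytotoxic solvent with surfactant.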

purple nutsedge = assay: Test B pre/postemergence purple nutsedge; format: in vivo, Cyperus rotundus
Method in brief: as §1

cocklebur = assay: Test B pre/postemergence cocklebur; format: in vivo, Xanthium strumarium
Method in brief: as §1

smallflower flatsedge = assay: Test B flood test smallflower flatsedge; format: in vivo, Cyperus difformis
Method in brief: (§2)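 Each value is a visual injury score relative to controls, with 10 meaning complete control and 0 no effect. Evaluation took place twelve to sixteen days after the 2-leaf-stage plants were treated and kept in the greenhouse.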

wheat = assay: Test B pre/postemergence wheat; format: in vivo, Triticum aestivum
Method in brief: as §1

velvetleaf = assay: Test B pre/postemergence velvetleaf; format: in vivo, Abutilon theophrasti
Method in brief: as §1

corn = assay: Test B pre/postemergence corn; format: in vivo, Zea mays
Method in brief: as §1

crabgrass = assay: Test B pre/postemergence crabgrass; format: in vivo, Digitaria sanguinalis
Method in brief: as §1

surinam grass = assay: Test B pre/postemergence surinam grass; format: in vivo, Brachiaria decumbens
Method in brief: as §1

bedstraw = assay: Test B pre/postemergence bedstraw; format: in vivo, Galium aparine
Method in brief: as §1

rape = assay: Test B pre/postemergence rape; format: in vivo, Brassica napus
Method in brief: as §1

soybean = assay: Test B pre/postemergence soybean; format: in vivo, Glycine max
Method in brief: as §1

rice = assay: Test B flood test rice; format: in vivo, Oryza sativa
Method in brief: as §2

wild oat = assay: Test B pre/postemergence wild oat; format: in vivo, Avena fatua
Method in brief: as §1

duck salad = assay: Test B flood test duck salad; format: in vivo, Heteranthera limosa
Method in brief: as §2

bamyardgrass = assay: Test B flood test barnyardgrass; format: in vivo, Echinochloa crus-galli
Method in brief: as §2

blackgrass = assay: Test B pre/postemergence blackgrass; format: in vivo, Alopecurus myosuroides
Method in brief: as §1

[1] = Postemergence, Rate 62 g/ha, scale 0 to 10, 0 is no effect, 10 is complete control
[2] = Postemergence, Rate 250 g/ha, scale 0 to 10, 0 no effect, 10 complete control
[3] = Preemergence, Rate 62 g/ha, scale 0 to 10, 0 is no effect, 10 is complete control
[4] = Preemergence, Rate 125 g/ha, scale 0 to 10 (0 no effect, 10 complete control)
[5] = Preemergence, Rate 250 g/ha, scale of 0 to 10 where 0 is no effect and 10 is complete control
[6] = Preemergence, Rate 500 g/ha, scale 0 (no effect) to 10 (complete control)
[7] = Rate 125 g/ha, Postemergence, scale 0 to 10, 0 no effect, 10 complete control
[8] = Rate 500 g/ha, Postemergence, 0 to 10 scale (0 no effect, 10 complete control)
[9] = Rate 125 g/ha, Postemergence section (flood test species), scale 0 to 10, 0 no effect, 10 complete control
[10] = flood test, listed under Postemergence, Rate 250 g/ha, scale 0 to 10, 0 no effect, 10 complete control
[11] = Rate 500 g/ha, Postemergence section of Table B, 0 to 10 scale (0 no effect, 10 complete control)

## CCc1ccccc1-n1c(=O)on(C(=O)N(c2ccc(F)cc2F)C(C)C)c1=O [Compound 45]
Sugar beet; [1]
  Sugarbeets plant response rating: 0
Sugar beet; [2]
  Sugarbeets plant response rating: 1
Sugar beet; [3]
  Plant response rating, Sugarbeets: 0
Sugar beet; [4]
  Plant response rating, Sugarbeets: 0
Sugar beet; [5]
  Plant response rating, Sugarbeets: 7
Sugar beet; [6]
  Sugarbeets plant response rating: 8
Sugar beet; [7]
  Sugarbeets plant response rating: 0
Purple nutsedge; [1]
  Nutsedge plant response rating: 0
Purple nutsedge; [2]
  Nutsedge plant response rating: 0
Purple nutsedge; [3]
  Plant response rating, Nutsedge: 0
Purple nutsedge; [4]
  Plant response rating, Nutsedge: 0
Purple nutsedge; [5]
  Plant response rating, Nutsedge: 0
Purple nutsedge; [6]
  Nutsedge plant response rating: 0
Purple nutsedge; [7]
  Nutsedge plant response rating: 0
Purple nutsedge; [8]
  Nutsedge plant response rating: 0
cocklebur; [1]
  Cocklebur plant response rating: 0
cocklebur; [2]
  Cocklebur plant response rating: 2
cocklebur; [3]
  Plant response rating, Cocklebur: 0
cocklebur; [4]
  Plant response rating, Cocklebur: 0
cocklebur; [5]
  Plant response rating, Cocklebur: 0
cocklebur; [6]
  Cocklebur plant response rating: 0
cocklebur; [7]
  Cocklebur plant response rating: 1
cocklebur; [8]
  Cocklebur plant response rating: 5
Smallflower flatsedge; [1]
  S. Flatsedge plant response rating: 0
Smallflower flatsedge; [9]
  S. Flatsedge plant response rating: 0
Smallflower flatsedge; [10]
  S. Flatsedge plant response rating: 0
wheat; [1]
  Wheat plant response rating: 0
wheat; [2]
  Wheat plant response rating: 0
wheat; [3]
  Plant response rating, Wheat: 0
wheat; [4]
  Plant response rating, Wheat: 0
wheat; [5]
  Plant response rating, Wheat: 0
wheat; [6]
  Wheat plant response rating: 0
wheat; [7]
  Wheat plant response rating: 0
velvetleaf; [1]
  Velvetleaf plant response rating: 0
velvetleaf; [2]
  Velvetleaf plant response rating: 0
velvetleaf; [3]
  Plant response rating, Velvetleaf: 0
velvetleaf; [4]
  Plant response rating, Velvetleaf: 0
velvetleaf; [5]
  Plant response rating, Velvetleaf: 0
velvetleaf; [6]
  Velvetleaf plant response rating: 3
velvetleaf; [7]
  Velvetleaf plant response rating: 0
corn; [1]
  Corn plant response rating: 0
corn; [2]
  Corn plant response rating: 0
corn; [3]
  Plant response rating, Corn: 0
corn; [4]
  Plant response rating, Corn: 0
corn; [5]
  Plant response rating, Corn: 0
corn; [6]
  Corn plant response rating: 1
corn; [7]
  Corn plant response rating: 0
corn; [8]
  Corn plant response rating: 0
crabgrass; [1]
  Crabgrass plant response rating: 0
crabgrass; [2]
  Crabgrass plant response rating: 2
crabgrass; [3]
  Plant response rating, Crabgrass: 0
crabgrass; [4]
  Plant response rating, Crabgrass: 1
crabgrass; [5]
  Plant response rating, Crabgrass: 1
crabgrass; [6]
  Crabgrass plant response rating: 9
crabgrass; [7]
  Crabgrass plant response rating: 0
crabgrass; [8]
  Crabgrass plant response rating: 3
Surinam grass; [1]
  B. signalgrass plant response rating: 0
Surinam grass; [2]
  B. signalgrass plant response rating: 0
Surinam grass; [3]
  Plant response rating, B. signalgrass: 0
Surinam grass; [4]
  Plant response rating, B. signalgrass: 2
Surinam grass; [5]
  Plant response rating, B. signalgrass: 4
Surinam grass; [6]
  B. signalgrass plant response rating: 9
Surinam grass; [7]
  B. signalgrass plant response rating: 0
Surinam grass; [8]
  B. signalgrass plant response rating: 2
bedstraw; [1]
  Bedstraw plant response rating: 3
bedstraw; [3]
  Plant response rating, Bedstraw: 0
bedstraw; [4]
  Plant response rating, Bedstraw: 0
bedstraw; [5]
  Plant response rating, Bedstraw: 0
bedstraw; [6]
  Bedstraw plant response rating: 0
bedstraw; [7]
  Bedstraw plant response rating: 5
rape; [1]
  Rape plant response rating: 0
rape; [2]
  Rape plant response rating: 0
rape; [3]
  Plant response rating, Rape: 0
rape; [4]
  Plant response rating, Rape: 0
rape; [5]
  Plant response rating, Rape: 0
rape; [6]
  Rape plant response rating: 0
rape; [7]
  Rape plant response rating: 0
rape; [8]
  Rape plant response rating: 0
soybean; [1]
  Soybean plant response rating: 1
soybean; [2]
  Soybean plant response rating: 1
soybean; [3]
  Plant response rating, Soybean: 0
soybean; [4]
  Plant response rating, Soybean: 0
soybean; [5]
  Plant response rating, Soybean: 0
soybean; [6]
  Soybean plant response rating: 3
soybean; [7]
  Soybean plant response rating: 1
rice; [1]
  Rice plant response rating: 0
rice; [9]
  Rice plant response rating: 0
rice; [11]
  Rice plant response rating: 0
rice; [10]
  Rice plant response rating: 0
Wild oat; [1]
  Wild oats plant response rating: 0
Wild oat; [2]
  Wild oats plant response rating: 0
Wild oat; [4]
  Plant response rating, Wild oats: 0
Wild oat; [5]
  Plant response rating, Wild oats: 0
Wild oat; [6]
  Wild oats plant response rating: 0
Wild oat; [7]
  Wild oats plant response rating: 0
Duck salad; [1]
  Ducksalad plant response rating: 0
Duck salad; [9]
  Ducksalad plant response rating: 0
Duck salad; [11]
  Ducksalad plant response rating: 0
Duck salad; [10]
  Ducksalad plant response rating: 0
bamyardgrass; [1]
  Barnyardgrass plant response rating: 0
bamyardgrass; [9]
  Barnyardgrass plant response rating: 0
bamyardgrass; [11]
  Barnyardgrass plant response rating: 0
bamyardgrass; [10]
  Barnyardgrass plant response rating: 0
blackgrass; [1]
  Blackgrass plant response rating: 0
blackgrass; [2]
  Blackgrass plant response rating: 4
blackgrass; [3]
  Plant response rating, Blackgrass: 0
blackgrass; [4]
  Plant response rating, Blackgrass: 0
blackgrass; [5]
  Plant response rating, Blackgrass: 0
blackgrass; [6]
  Blackgrass plant response rating: 0
blackgrass; [7]
  Blackgrass plant response rating: 0
blackgrass; [8]
  Blackgrass plant response rating: 4
